Laboratory results reported in PubChem BioAssay AID1963836 (Molecular Pharmacology Branch, DTP, NCI, 2024).

Test system: 857933-349-R-J2-PDC complex spheroid viability
Assay: Anticancer human tumor 857933-349-R-J2-PDC patient-derived colon adenocarcinoma cell line growth inhibition [POLQ]
Details: for IC50: curve of first compound; for viability, T/C: stronger effect = lower value; active = viability on the fitted dose curve at most 10% of control; inactive = the rest
Method: Multicellular complex tumor spheroid response to Polymerase (POL) inhibitors (novobiocin, ART-558, RP6685) in combination with a variety of drugs and investigational agents in selected tumor cell lines
The POL inhibitors (novobiocin, ART-558, and RP6685) were evaluated both individually and in combination with standard of care and investigational anticancer small molecules within a complex spheroid model of solid tumors. . Complex spheroids include a stromal component modeled by human endothelial cells (HUVEC) and fibroblasts modeled by human mesenchymal stem cells (MSCs). The concentration ranges selected for each drug and investigational agent were based upon clinically achievable concentrations if the clinical Cmax of the agent was known.
Compounds. The drugs and investigational agents: novobiocin (NSC847541), ART-558 (NSC835418), RP-6685 (NSC848927), peposertib (NSC802822), ceralasertib (NSC780249), elimusertib (NSC800525), camonsertib (NSC841442), AZD-1390 (NSC803789), olaparib (NSC753686), talazoparib (NSC767125), rucaparib (NSC756644), sotorasib (NSC818433), MRTX-1133 (NSC836407), SN-38 (NSC673596), topotecan (NSC609699), epotoside (NSC141540), doxorubicin (NSC123127), gemcitabine (NSC613327), 5-fluorouracil (NSC19893), paclitaxel (NSC125973), vemurafenib (NSC761431), MSA-2 (NSC828583), SN-011 (NSC837082), adavosertib (NSC754352), prexasertib (NSC758257), carboplatin (NSC241240) and oxaliplatin (NSC266046), were obtained from the National Cancer Institute (NCI) Developmental Therapeutics Program Chemical Repository (21). The FDA-approved anticancer drug set is available from the Developmental Therapeutics Program at https://dtp.cancer.gov/organization/dscb/obtaining/. […] The stock solutions were prepared in dimethyl sulfoxide (DMSO, Sigma-Aldrich, St. Louis, MO, cat. D2650), except for the platinum compounds which were prepared in saline (Quality Biological, Gaithersburg, MD, cat. 114-055-101), at 800-fold the tested concentration and stored at -70 degrees C prior to their use. All drugs and investigational agents were tested over a range starting from a high concentration at or near the clinical Cmax and decreasing in half-log increments. If the clinical Cmax for an agent had not been determined, the highest concentration tested was 10 microM, except for SN-38, which was tested at a high concentration of 1 microM.
Cell Culture. All cells were maintained in an incubator at 37 degrees C and 5% CO2 with 95% humidity. The PDC lines were cultured according to standard operating procedures established by the NCI PDMR (https://pdmr.cancer.gov). Table 3 of the manuscript, lists the cell lines along with the number of the three cell types plated to form the mct-spheroids and media for tumor cell growth. After thawing, all PDC lines, except 997537-175-T-J1-PDC and 415267-285-R-J2-PDC, were cultured in Matrigel-coated flasks prepared with a working solution of 1X Ham's F-12 nutrient mix, without supplementation (Thermo Fisher Scientific, cat. 11765054), 100 U/mL penicillin-streptomycin (Thermo Fisher Scientific, cat. 15140122), and 2.5% Matrigel (Corning Inc., Corning, NY, cat. 354248) for the first three passages. The two PDC lines 997537-175-T-J1-PDC and 415267-285-R-J2-PDC were cultured on uncoated flasks. The 857933-349-R-J2-PDC line was cultured in 6C/Colon 1B media containing advanced DMEM/F-12 (Thermo Fisher Scientific, cat. 12634028), 10 mM HEPES (Thermo Fisher Scientific, cat. 15630080), 1X GlutaMAX supplement (Thermo Fisher Scientific, cat. 35050061), 0.1 mg/mL primocin (InvivoGen, San Diego, CA, cat. ant-pm-2), 10% defined fetal bovine serum, heat inactivated (HyClone Laboratories Inc., Logan, UT, cat. SH30070.03HI), 50% L-WRN conditioned media (ATCC, cat. CRL-3276), 1.25 mM N-Acetyl-L-cysteine (Sigma-Aldrich, cat. A9165), 10 mM nicotinamide (Sigma-Aldrich, cat. N0636), 1X B-27 supplement (Thermo Fisher Scientific, cat. 17504044), 1X N-2 supplement (Thermo Fisher Scientific, cat. […]

[1] = second compound 0.0316 µM, first compound 0.0316 µM
[2] = second compound 0.0316 µM, first compound 0.1 µM
[3] = second compound 0.0316 µM, first compound 0.316 µM
[4] = second compound 0.0316 µM, first compound 1 µM
[5] = second compound 0.0316 µM, first compound 3.16 µM
[6] = second compound 0.0316 µM, first compound 10 µM
[7] = second compound 0.1 µM, first compound 0.0316 µM
[8] = second compound 0.1 µM, first compound 0.1 µM
[9] = second compound 0.1 µM, first compound 0.316 µM
[10] = second compound 0.1 µM, first compound 1 µM
[11] = second compound 0.1 µM, first compound 3.16 µM
[12] = second compound 0.1 µM, first compound 10 µM
[13] = second compound 0.316 µM, first compound 0.0316 µM
[14] = second compound 0.316 µM, first compound 0.1 µM
[15] = second compound 0.316 µM, first compound 0.316 µM
[16] = second compound 0.316 µM, first compound 1 µM
[17] = second compound 0.316 µM, first compound 3.16 µM
[18] = second compound 0.316 µM, first compound 10 µM
[19] = second compound 1 µM, first compound 0.0316 µM
[20] = second compound 1 µM, first compound 0.1 µM
[21] = second compound 1 µM, first compound 0.316 µM
[22] = second compound 1 µM, first compound 1 µM
[23] = second compound 1 µM, first compound 3.16 µM
[24] = second compound 1 µM, first compound 10 µM
[25] = second compound 3.16 µM, first compound 0.0316 µM
[26] = second compound 3.16 µM, first compound 0.1 µM
[27] = second compound 3.16 µM, first compound 0.316 µM
[28] = second compound 3.16 µM, first compound 1 µM
[29] = second compound 3.16 µM, first compound 3.16 µM
[30] = second compound 3.16 µM, first compound 10 µM
[31] = second compound 10 µM, first compound 0.0316 µM
[32] = second compound 10 µM, first compound 0.1 µM
[33] = second compound 10 µM, first compound 0.316 µM
[34] = second compound 10 µM, first compound 1 µM
[35] = second compound 10 µM, first compound 3.16 µM
[36] = second compound 10 µM, first compound 10 µM
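Also: spheroids exposed to compounds for seven days before readout.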

CC1COCCN1c1cc(C2(S(C)(=N)=O)CC2)nc(-c2ccnc3[nH]ccc23)n1 (centres undefined) + Cc1cccc(N(C)C(=O)C2C(O)CCN2c2nc(C)cc(C(F)(F)F)c2C#N)c1
4.77 µM: IC50 (second compound 10 µM)
3.88 µM: IC50 (second compound 0.1 µM)
3.21 µM: IC50 (second compound 0.0316 µM)
inactive: viability, T/C [1] 97.9% | viability, T/C [2] 105% | viability, T/C [3] 95% | viability, T/C [4] 78.2% | viability, T/C [5] 50.4% | viability, T/C [6] 36.4% | viability, T/C [7] 88.6% | viability, T/C [8] 112% | viability, T/C [9] 87.4% | viability, T/C [10] 76.3% | viability, T/C [11] 55.2% | viability, T/C [12] 32.5% | viability, T/C [13] 75% | viability, T/C [14] 81.5% | viability, T/C [15] 101% | viability, T/C [16] 69.8% | viability, T/C [17] 48.7% | viability, T/C [18] 35.4% | viability, T/C [19] 92.9% | viability, T/C [20] 91.7% | viability, T/C [21] 102% | viability, T/C [22] 74.8% | viability, T/C [23] 57.4% | viability, T/C [24] 36.6% | viability, T/C [25] 95.5% | viability, T/C [26] 98.2% | viability, T/C [27] 84.4% | viability, T/C [28] 78.8% | viability, T/C [29] 52.3% | viability, T/C [30] 45.8% | viability, T/C [31] 80.1% | viability, T/C [32] 84.7% | viability, T/C [33] 88.6% | viability, T/C [34] 72.5% | viability, T/C [35] 57.4% | viability, T/C [36] 38.2%
2.71 µM: IC50 (second compound 0.316 µM)
4.38 µM: IC50 (second compound 1 µM)
5.54 µM: IC50 (second compound 3.16 µM)

CCCS(=O)(=O)Nc1ccc(F)c(C(=O)c2c[nH]c3ncc(-c4ccc(Cl)cc4)cc23)c1F + Cc1cccc(N(C)C(=O)C2C(O)CCN2c2nc(C)cc(C(F)(F)F)c2C#N)c1
6.4 µM: IC50 (second compound 0.1 µM)
6.73 µM: IC50 (second compound 1 µM)
6.51 µM: IC50 (second compound 10 µM)
inactive: viability, T/C [1] 87.7% | viability, T/C [2] 104% | viability, T/C [3] 97% | viability, T/C [4] 99.3% | viability, T/C [5] 98.8% | viability, T/C [6] 28.1% | viability, T/C [7] 106% | viability, T/C [8] 105% | viability, T/C [9] 93.6% | viability, T/C [10] 94.5% | viability, T/C [11] 98.7% | viability, T/C [12] 19.1% | viability, T/C [13] 107% | viability, T/C [14] 99.6% | viability, T/C [15] 93.2% | viability, T/C [16] 95.5% | viability, T/C [17] 109% | viability, T/C [18] 24.2% | viability, T/C [19] 95.6% | viability, T/C [20] 111% | viability, T/C [21] 99.5% | viability, T/C [22] 91.3% | viability, T/C [23] 103% | viability, T/C [24] 23.6% | viability, T/C [25] 92.1% | viability, T/C [26] 96% | viability, T/C [27] 82.2% | viability, T/C [28] 100% | viability, T/C [29] 102% | viability, T/C [30] 25.2% | viability, T/C [31] 115% | viability, T/C [32] 99% | viability, T/C [33] 97% | viability, T/C [34] 99.9% | viability, T/C [35] 96.5% | viability, T/C [36] 22.3%
6.96 µM: IC50 (second compound 0.0316 µM)
6.62 µM: IC50 (second compound 3.16 µM)
6.8 µM: IC50 (second compound 0.316 µM)
